According to US20220125959A1, “PROSTATE-SPECIFIC MEMBRANE ANTIGEN (PSMA) INHIBITORS AS DIAGNOSTIC AND RADIONUCLIDE THERAPEUTIC AGENTS” (FIVE ELEVEN PHARMA INC., priority 2019, published 2022):

What was measured:
[1] = tested on: PSMA-negative cell line, PC3; experiment: In vitro cell uptake, PC3 cells; assay type: cell-based; details: PC3 (do not express PSMA), 60 min
Method in brief: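 Cells grown 48 h, washed, then incubated at 37 °C with [^177Lu]-labelled ligand; nonspecific binding defined with 10 μM 2-PMPA. After washing and lysis in 0.5 M NaOH, activity counted in a gamma counter; uptake expressed as % ID, triplicates.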

[2] = Stability of injected doses after formulation; assay type: physicochemical; details: at 24 hr after formulation
Method in brief: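 Ligand labeled with ^68Ga (90° C, 10 min) or ^177Lu (95° C, 1 hour) in NaOAc; radiochemical purity checked by radio-HPLC, with stability of formulated doses followed to 2 hr (^68Ga) or 48 hr (^177Lu). Mice received iv 100 μCi, 0.72 nmole ligand/mouse.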

[3] = tested on: PC3-PIP (PSMA positive) and PC-3 tumors (PSMA negative); experiment: Biodistribution of 177Lu labeled compounds 42 and 51 in tumor bearing nude mice; assay type: in vivo, CD-1 male nude mice
Method: For iv injection 150 μL of labeled solution was diluted with saline to 3.75mL. Mice were injected with 150 μL of formulated dose. Injected radioactivity was 100 μCi and PSMA ligand amount was constant at 0.72 nmole/mouse.
Similarly, the tissue distribution of [^177Lu]42 and [^177Lu]51 was evaluated in mice bearing PIP PC3 (PSMA positive) and PC3 (PSMA negative) tumors on the left and right shoulder, respectively, over a period of 24 h (Table 4). […] The tumor specific uptake for [^177Lu]51 was higher than that observed for [^177Lu]42. […] Results of this study lend support for using these dual-targeted ^177Lu labeled agents for treatment of metastatic prostate cancer.

[4] = tested on: PSMA-positive cell line, PIP PC3; experiment: In vitro cell uptake, PIP PC3 cells; assay type: cell-based
Method in brief: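 Cellular uptake of [^177Lu]-labelled ligands was measured in PIP PC3 cells seeded at 5×10^5 cells/well in 12-well plates and grown 48 h in 1 mL medium. After two PBS washes and addition of 900 μL fresh medium, triplicate wells were incubated at 37° C. Cells were then washed twice, lysed in 1 mL of 0.5 M NaOH, and gamma-counted, with uptake expressed as % ID.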

## O=C([O-])CN1CCN(C(CCC(=O)NCC(=O)NC(Cc2ccc(OCC(=O)NC(Cc3ccccc3)C(=O)NCCCCC(NC(=O)NC(CCC(=O)O)C(=O)O)C(=O)O)cc2)C(=O)O)C(=O)[O-])CCN(CC(=O)[O-])CCN(C(CCC(=O)NCC(=O)NC(P(=O)(O)O)P(=O)(O)O)C(=O)O)CC1.[177Lu+3] (centres unmarked) [[^177Lu]42]
[1]
  In vitro cell uptake: 0.8 % ID per 5 × 10^5 cells
[2]
  Stability of injected doses: stable
[3]; 1 hr
  Biodistribution: Blood: 0.18 ± 0.05 % dose/g
  Biodistribution: Bone: 5.82 ± 1.59 % dose/g
  Biodistribution: Heart: 0.13 ± 0.03 % dose/g
  Biodistribution: Kidney: 27.52 ± 7.47 % dose/g
  Biodistribution: Lg Intestine: 0.11 ± 0.03 % dose/g
  Biodistribution: Liver: 0.12 ± 0.02 % dose/g
  Biodistribution: Lung: 0.38 ± 0.11 % dose/g
  Biodistribution: Muscle: 0.08 ± 0.02 % dose/g
  Biodistribution: PC3 tumor: 0.41 ± 0.10 % dose/g
  Biodistribution: PIP PC3 tumor: 11.29 ± 2.44 % dose/g
  Biodistribution: Pancreas: 0.20 ± 0.09 % dose/g
  Biodistribution: Skin: 0.22 ± 0.05 % dose/g
  Biodistribution: Sm Intestine: 0.24 ± 0.15 % dose/g
  Biodistribution: Spleen: 0.53 ± 0.17 % dose/g
  Biodistribution: Stomach: 0.17 ± 0.07 % dose/g
[3]; 4 hr
  Biodistribution: Blood: 0.02 ± 0.01 % dose/g
  Biodistribution: Bone: 5.62 ± 1.18 % dose/g
  Biodistribution: Heart: 0.06 ± 0.02 % dose/g
  Biodistribution: Kidney: 11.81 ± 5.81 % dose/g
  Biodistribution: Lg Intestine: 1.03 ± 1.01 % dose/g
  Biodistribution: Liver: 0.08 ± 0.02 % dose/g
  Biodistribution: Lung: 0.13 ± 0.04 % dose/g
  Biodistribution: Muscle: 0.05 ± 0.04 % dose/g
  Biodistribution: PC3 tumor: 0.28 ± 0.11 % dose/g
  Biodistribution: PIP PC3 tumor: 7.62 ± 1.60 % dose/g
  Biodistribution: Pancreas: 0.05 ± 0.02 % dose/g
  Biodistribution: Skin: 0.10 ± 0.03 % dose/g
  Biodistribution: Sm Intestine: 0.94 ± 1.12 % dose/g
  Biodistribution: Spleen: 0.18 ± 0.06 % dose/g
  Biodistribution: Stomach: 0.49 ± 0.60 % dose/g
[3]; 24 hr
  Biodistribution: Blood: 0.00 ± 0.00 % dose/g
  Biodistribution: Bone: 4.55 ± 0.26 % dose/g
  Biodistribution: Heart: 0.03 ± 0.01 % dose/g
  Biodistribution: Kidney: 2.62 ± 0.19 % dose/g
  Biodistribution: Lg Intestine: 0.37 ± 0.20 % dose/g
  Biodistribution: Liver: 0.06 ± 0.00 % dose/g
  Biodistribution: Lung: 0.04 ± 0.01 % dose/g
  Biodistribution: Muscle: 0.03 ± 0.02 % dose/g
  Biodistribution: PC3 tumor: 0.11 ± 0.04 % dose/g
  Biodistribution: PIP PC3 tumor: 4.72 ± 1.68 % dose/g
  Biodistribution: Pancreas: 0.01 ± 0.00 % dose/g
  Biodistribution: Skin: 0.05 ± 0.01 % dose/g
  Biodistribution: Sm Intestine: 0.06 ± 0.05 % dose/g
  Biodistribution: Spleen: 0.04 ± 0.01 % dose/g
  Biodistribution: Stomach: 0.14 ± 0.10 % dose/g
[3]; mouse, in vivo
  PC3 (PSMA negative) tumor uptake: very low uptake
  PIP PC3 (PSMA positive) tumor uptake: excellent
  Uptake in bone: high specific uptake in bone
[4]; PIP PC3, 5 min
  In vitro cell uptake: 3.3 % ID per 5 × 10^5 cells
[4]; PIP PC3, 15 min
  In vitro cell uptake: 5.5 % ID per 5 × 10^5 cells
[4]; PIP PC3, 30 min
  In vitro cell uptake: 7.6 % ID per 5 × 10^5 cells
[4]; PIP PC3, 60 min
  In vitro cell uptake: 8.6 % ID per 5 × 10^5 cells
[4]; PIP PC3, 60 min, with PSMA inhibitor (2-PMPA, 2 uM)
  In vitro cell uptake: 0.9 % ID per 5 × 10^5 cells
[4]; PIP PC3, 120 min
  In vitro cell uptake: 9.8 % ID per 5 × 10^5 cells
